Test results from patent publication US9492471B2, “Methods of treating a disease or disorder associated with Bruton'S Tyrosine Kinase” (Celgene Avilomics Research, Inc., priority 2013, dated 2016).
Where two headings read alike, the source gives them in different places.

What was measured:
Experiment in all cases: HotSpot kinase profiling
Assay type in all cases: biochemical
NEK3 = molecular target: T1, NEK3 (Homo sapiens, UniProt P51956)
T1 construct: purchased Reaction Biology Corp
T1 sequence (P51956 1-506): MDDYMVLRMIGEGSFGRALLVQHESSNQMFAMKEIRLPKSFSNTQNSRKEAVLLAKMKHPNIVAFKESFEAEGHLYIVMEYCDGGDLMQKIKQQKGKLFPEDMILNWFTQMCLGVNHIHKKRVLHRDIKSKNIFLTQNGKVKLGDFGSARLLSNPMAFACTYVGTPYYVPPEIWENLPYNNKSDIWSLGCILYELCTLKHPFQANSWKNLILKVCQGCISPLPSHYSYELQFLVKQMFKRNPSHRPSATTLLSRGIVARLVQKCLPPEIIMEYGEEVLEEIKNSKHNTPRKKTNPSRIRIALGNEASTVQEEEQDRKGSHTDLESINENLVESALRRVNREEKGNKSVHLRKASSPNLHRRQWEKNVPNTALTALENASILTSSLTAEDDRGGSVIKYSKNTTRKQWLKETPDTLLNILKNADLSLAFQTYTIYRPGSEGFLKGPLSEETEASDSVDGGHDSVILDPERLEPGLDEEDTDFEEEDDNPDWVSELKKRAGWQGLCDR
Procedure, shortened: (§1)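 Radiometric kinase assay with P81 filter capture; each kinase was added to fresh substrate plus cofactors in reaction buffer and incubated 2 h at room temperature. Unreacted phosphate was washed off with 0.1% phosphoric acid before detection; percent inhibition is relative to DMSO control, averaged over replicates.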

P38d/MAPK13 = molecular target: T2, P38d/MAPK13 (Homo sapiens, UniProt O15264)
T2 construct: purchased Reaction Biology Corp
T2 sequence (O15264 1-365): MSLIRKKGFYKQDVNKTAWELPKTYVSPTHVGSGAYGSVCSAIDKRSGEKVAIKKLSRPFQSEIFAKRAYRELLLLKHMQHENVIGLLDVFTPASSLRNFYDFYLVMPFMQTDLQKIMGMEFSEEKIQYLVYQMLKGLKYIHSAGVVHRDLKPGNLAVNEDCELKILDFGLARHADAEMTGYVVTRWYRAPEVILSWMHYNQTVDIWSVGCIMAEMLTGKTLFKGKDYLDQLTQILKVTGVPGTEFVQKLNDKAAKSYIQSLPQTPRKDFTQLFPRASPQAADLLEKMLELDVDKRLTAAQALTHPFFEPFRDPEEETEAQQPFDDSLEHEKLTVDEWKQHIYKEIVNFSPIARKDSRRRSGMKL
Procedure, shortened: as §1

IR = molecular target: T3, IR (Homo sapiens, UniProt P06213)
T3 construct: purchased Reaction Biology Corp
Procedure, shortened: as §1

FLT3 = molecular target: T4, FLT3 (Homo sapiens, UniProt P36888)
T4 construct: purchased Reaction Biology Corp
T4 sequence (P36888 27-993): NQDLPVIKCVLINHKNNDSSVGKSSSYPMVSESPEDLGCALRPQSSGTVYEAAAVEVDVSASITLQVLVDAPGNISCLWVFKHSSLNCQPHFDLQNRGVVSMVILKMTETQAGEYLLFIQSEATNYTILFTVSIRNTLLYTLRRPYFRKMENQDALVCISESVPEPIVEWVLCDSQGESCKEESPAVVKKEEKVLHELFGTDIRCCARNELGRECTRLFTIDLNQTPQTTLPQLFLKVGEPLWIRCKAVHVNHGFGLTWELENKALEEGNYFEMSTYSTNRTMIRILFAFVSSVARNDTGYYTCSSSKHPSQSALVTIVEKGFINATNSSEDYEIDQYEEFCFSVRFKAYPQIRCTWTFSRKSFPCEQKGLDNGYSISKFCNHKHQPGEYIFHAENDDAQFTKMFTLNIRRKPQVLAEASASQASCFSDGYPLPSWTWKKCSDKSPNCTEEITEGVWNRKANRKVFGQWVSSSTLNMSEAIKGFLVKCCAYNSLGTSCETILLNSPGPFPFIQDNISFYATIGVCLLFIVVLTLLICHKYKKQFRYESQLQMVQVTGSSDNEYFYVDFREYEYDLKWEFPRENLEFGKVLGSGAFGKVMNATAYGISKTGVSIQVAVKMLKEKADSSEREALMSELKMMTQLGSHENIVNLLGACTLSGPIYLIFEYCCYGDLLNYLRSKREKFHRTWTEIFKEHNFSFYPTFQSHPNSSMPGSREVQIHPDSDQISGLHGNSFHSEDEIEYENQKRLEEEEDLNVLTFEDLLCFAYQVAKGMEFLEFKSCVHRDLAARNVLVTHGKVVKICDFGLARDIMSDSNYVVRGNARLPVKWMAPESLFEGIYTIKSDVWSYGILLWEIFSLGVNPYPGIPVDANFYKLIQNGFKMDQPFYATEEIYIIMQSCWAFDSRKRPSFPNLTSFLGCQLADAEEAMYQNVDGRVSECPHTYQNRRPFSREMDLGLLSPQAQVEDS
Procedure, shortened: as §1

[1] = read-out: % Enzyme Activity (relative to DMSO controls) Run 1
[2] = read-out: % Enzyme Activity (relative to DMSO controls) Run 2

T3 sequence (P06213 28-1382): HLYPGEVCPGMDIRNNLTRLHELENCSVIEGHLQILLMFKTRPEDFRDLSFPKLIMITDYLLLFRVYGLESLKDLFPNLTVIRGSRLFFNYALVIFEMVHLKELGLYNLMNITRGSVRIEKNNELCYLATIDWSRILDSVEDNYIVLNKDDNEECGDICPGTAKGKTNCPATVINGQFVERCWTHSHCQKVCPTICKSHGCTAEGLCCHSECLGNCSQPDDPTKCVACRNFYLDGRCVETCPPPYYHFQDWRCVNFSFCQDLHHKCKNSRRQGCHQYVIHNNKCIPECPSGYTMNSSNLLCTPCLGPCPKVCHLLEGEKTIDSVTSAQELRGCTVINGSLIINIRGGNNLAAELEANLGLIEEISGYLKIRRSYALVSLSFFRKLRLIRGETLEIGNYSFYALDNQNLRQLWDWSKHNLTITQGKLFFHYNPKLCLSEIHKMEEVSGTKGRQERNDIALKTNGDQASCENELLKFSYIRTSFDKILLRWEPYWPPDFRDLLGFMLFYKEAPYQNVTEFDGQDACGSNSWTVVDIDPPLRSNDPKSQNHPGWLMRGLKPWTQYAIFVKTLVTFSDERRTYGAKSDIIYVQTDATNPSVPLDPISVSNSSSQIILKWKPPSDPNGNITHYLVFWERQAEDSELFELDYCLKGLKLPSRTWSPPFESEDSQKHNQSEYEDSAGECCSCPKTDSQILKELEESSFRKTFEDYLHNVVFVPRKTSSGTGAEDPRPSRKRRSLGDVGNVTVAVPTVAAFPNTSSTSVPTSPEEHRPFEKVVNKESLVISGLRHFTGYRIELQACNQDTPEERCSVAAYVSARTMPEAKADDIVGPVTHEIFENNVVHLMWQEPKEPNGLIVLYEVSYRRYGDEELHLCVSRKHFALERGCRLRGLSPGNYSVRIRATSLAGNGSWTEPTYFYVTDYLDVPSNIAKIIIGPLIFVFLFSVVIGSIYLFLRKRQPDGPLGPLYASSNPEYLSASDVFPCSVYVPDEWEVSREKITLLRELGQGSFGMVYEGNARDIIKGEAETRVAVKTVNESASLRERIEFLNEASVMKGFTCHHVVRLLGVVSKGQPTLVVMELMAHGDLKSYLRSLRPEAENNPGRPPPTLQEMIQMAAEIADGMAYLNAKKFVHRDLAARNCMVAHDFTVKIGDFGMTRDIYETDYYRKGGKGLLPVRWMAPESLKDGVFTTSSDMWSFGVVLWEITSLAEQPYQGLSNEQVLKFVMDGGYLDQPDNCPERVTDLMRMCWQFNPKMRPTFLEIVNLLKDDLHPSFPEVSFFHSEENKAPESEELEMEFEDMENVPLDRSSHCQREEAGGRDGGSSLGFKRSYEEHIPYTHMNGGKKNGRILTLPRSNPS

## C=CC(=O)Nc1cccc(Nc2nc(Nc3ccc(OCCOC)c(F)c3)ncc2F)c1 [Compound 2]
NEK3
  inhibition at 3 µM: 24.1%
NEK3; [1]
  remaining activity at 3 µM: 76.7%
NEK3; [2]
  remaining activity at 3 µM: 75.1%
P38d/MAPK13
  inhibition at 3 µM: 0.64%
P38d/MAPK13; [1]
  remaining activity at 3 µM: 98.9%
P38d/MAPK13; [2]
  remaining activity at 3 µM: 99.8%
IR
  inhibition at 3 µM: 15.4%
IR; [1]
  remaining activity at 3 µM: 84.5%
IR; [2]
  remaining activity at 3 µM: 84.7%
FLT3
  inhibition at 3 µM: 96.8%
FLT3; [1]
  remaining activity at 3 µM: 3.19%
FLT3; [2]
  remaining activity at 3 µM: 3.25%
